Results as given in patent US4241069A, “3-Methylene flavanones and 3-methylene chromanones” (Miles Laboratories, Inc., priority 1979, dated 1980).
Converted amounts (≈) assume the structure as drawn.

Experiments:
A. fumigatus NRRL 163 = test: MIC, agar incorporation method; type: cell-based; settings: 32° C., 48-72 hours; for MIC: Aspergillus fumigatus, NRRL163, NRRL 163, read-out: Minimal Inhibitory Concentration
How it was run: (§1)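 Eugon agar incorporation; compound 100–3.1 mcg/ml (to 0.125 in some tests), two-fold steps, DMF vehicle. Inoculum 1,000,000 cells or spores/ml, one drop per plate, 32° C. Visual MIC: bacteria at 24 h, dermatophytes 48–72 h.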

T. mentagrophytes TM-2 = test: MIC, agar incorporation method; type: cell-based; settings: Trichophyton mentagrophytes, TM2, 32° C., 48-72 hours, read-out: Minimal Inhibitory Concentration
How it was run: as §1

C. albicans NRRL Y-477 = test: MIC, agar incorporation method; type: cell-based; settings: Candida albicans, NRRLY477, 32° C., 24 hours, read-out: Minimal Inhibitory Concentration
How it was run: as §1

[1] = tested on: Microsporum gypseum ATCC 14683; test: MIC, agar incorporation method; type: cell-based; settings: 48-72 hours; for MIC: Nannizzia gypsea, ATCC14683, 32° C., read-out: Minimal Inhibitory Concentration
How it was run: as §1

[2] = tested on: Sarcina subflava ATCC 7468; test: MIC, agar incorporation method; type: cell-based; settings: ATCC7468, 32° C., 24 hours, read-out: Minimal Inhibitory Concentration
How it was run: as §1

[3] = tested on: Escherichia coli ATCC 8739; test: MIC, agar incorporation method; type: cell-based; settings: ATCC8739, 32° C., 24 hours, read-out: Minimal Inhibitory Concentration
How it was run: as §1

A. fumigatus NRRL 165 = test: MIC, agar incorporation method; type: cell-based; settings: Aspergillus fumigatus, NRRL165, 32° C., 48-72 hours, read-out: Minimal Inhibitory Concentration
How it was run: as §1

[4] = tested on: Streptococcus faecalis ATCC 10541; test: MIC, agar incorporation method; type: cell-based; settings: Enterococcus faecalis, ATCC10541; 32° C., 24 hours; read-out: Minimal Inhibitory Concentration
How it was run: as §1

[5] = tested on: Candida albicans ATCC 10231; test: MIC, agar incorporation method; type: cell-based; settings: ATCC10231, C. albicans ATCC 10231, 32° C., 24 hours, read-out: Minimal Inhibitory Concentration
How it was run: as §1

C. krusei VM 29B = test: MIC, agar incorporation method; type: cell-based; settings: Pichia kudriavzevii, VM29B; 32° C., 24 hours; read-out: Minimal Inhibitory Concentration
How it was run: as §1

C. tropicalis NRRL Y1410 = test: MIC, agar incorporation method; type: cell-based; settings: Candida tropicalis, NRRLY1410; 32° C., 24 hours; read-out: Minimal Inhibitory Concentration
How it was run: as §1

[6] = tested on: Staphylococcus aureus ATCC 6538; test: MIC, agar incorporation method; type: cell-based; settings: S. aureus ATCC 6538, 32° C., 24 hours; for MIC: Staphylococcus aureus, ATCC6538, read-out: Minimal Inhibitory Concentration
How it was run: as §1

[7] = tested on: Proteus vulgaris NRRL B123; test: MIC, agar incorporation method; type: cell-based; settings: NRRLB123, 32° C., 24 hours, read-out: Minimal Inhibitory Concentration
How it was run: as §1

T. rubrum ATCC 10218 = test: MIC, agar incorporation method; type: cell-based; settings: Trichophyton rubrum, ATCC10218; 32° C., 48-72 hours; read-out: Minimal Inhibitory Concentration
How it was run: as §1

C. guillermondii VM 42 = test: MIC, agar incorporation method; type: cell-based; settings: 32° C., 24 hours; read-out: Minimal Inhibitory Concentration
How it was run: as §1

T. mentagrophytes CDC = test: MIC, agar incorporation method; type: cell-based; settings: Trichophyton mentagrophytes, 32° C., 48-72 hours, read-out: Minimal Inhibitory Concentration
How it was run: as §1

[8] = tested on: Aspergillus niger ATCC 16404; test: MIC, agar incorporation method; type: cell-based; settings: ATCC16404, 32° C., 48-72 hours, read-out: Minimal Inhibitory Concentration
How it was run: as §1

[9] = tested on: Pseudomonas aeruginosa ATCC 14502; test: MIC, agar incorporation method; type: cell-based; settings: ATCC14502, 32° C., 24 hours, read-out: Minimal Inhibitory Concentration
How it was run: as §1

[10] = tested on: Trichophyton mentagrophytes ATCC 4807; test: MIC, agar incorporation method; type: cell-based; settings: ATCC4807, 32° C., 48-72 hours, read-out: Minimal Inhibitory Concentration
How it was run: as §1

S. aureus NRRL B2747 [11] = test: MIC, agar incorporation method; type: cell-based, Staphylococcus aureus; settings: 24 hours; for MIC: Staphylococcus aureus, NRRLB2747, 32° C., read-out: Minimal Inhibitory Concentration
How it was run: as §1

[12] = tested on: Propionobacterium acnes ATCC 6919; test: MIC, agar incorporation method, anaerobic; type: cell-based; settings: 48 hours at 35° C., GasPak Anaerobic Jar, read-out: Minimal Inhibitory Concentration
How it was run: (§2)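 Two-fold compound dilutions (100 to 3.1, sometimes to 0.125 mcg/ml) in DMF were incorporated into Eugon agar. Plates were spot-inoculated with about 1,000,000 cells/ml suspensions, with anaerobes pre-grown in thioglycollate medium. Anaerobes were incubated 48 h at 35 °C in a GasPak jar, and MIC was the lowest concentration visibly inhibiting growth.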

[13] = tested on: Clostridium acetobutylicum ATCC 824; test: MIC, agar incorporation method, anaerobic; type: cell-based; settings: ATCC824, 48 h, 48 hours at 35° C., GasPak Anaerobic Jar, read-out: Minimal Inhibitory Concentration
How it was run: as §2

T. tonsurans ATCC 10217 = test: MIC, agar incorporation method; type: cell-based; settings: Trichophyton tonsurans, ATCC10217; 32° C., 48-72 hours; read-out: Minimal Inhibitory Concentration
How it was run: as §1

S. aureus NRRL B2747 [14] = test: MIC, agar incorporation method, anaerobic; type: cell-based; settings: Staphylococcus aureus, NRRLB2747, 48 hours at 35° C., GasPak Anaerobic Jar, read-out: Minimal Inhibitory Concentration
How it was run: as §2

[15] = tested on: Bacteriodides fragilis ATCC 8482; test: MIC, agar incorporation method, anaerobic; type: cell-based; settings: 48 hours at 35° C., GasPak Anaerobic Jar, read-out: Minimal Inhibitory Concentration
How it was run: as §2

[16] = tested on: Clostridium sporogenes ATCC 11437; test: MIC, agar incorporation method, anaerobic; type: cell-based; settings: ATCC11437, 48 hours at 35° C., GasPak Anaerobic Jar, read-out: Minimal Inhibitory Concentration
How it was run: as §2

SMILES | MIC (A. fumigatus NRRL 163) [µg/mL] | MIC (T. mentagrophytes TM-2) [µg/mL] | MIC (C. albicans NRRL Y-477) [µg/mL] | MIC [2] [µg/mL] | MIC [3] [µg/mL] | MIC [4] [µg/mL] | MIC [5] [µg/mL] | MIC (C. krusei VM 29B) [µg/mL] | MIC (C. tropicalis NRRL Y1410) [µg/mL] | MIC [6] [µg/mL] | MIC [7] [µg/mL] | MIC (T. rubrum ATCC 10218) [µg/mL] | MIC (C. guillermondii VM 42) [µg/mL] | MIC (T. mentagrophytes CDC) [µg/mL] | MIC [8] [µg/mL] | MIC [9] [µg/mL] | MIC [10] [µg/mL] | MIC (S. aureus NRRL B2747 [11]) [µg/mL] | MIC [12] [µg/mL] | MIC [13] [µg/mL] | also measured
C=C1C(=O)c2ccccc2OC1c1ccc(C)cc1 (stereo not shown) [Ex. 13, 4'-methyl-3-methylene flavanone] | 12.5 (≈ 49.9 µM) | 6.2 (≈ 24.8 µM) | 25 (≈ 99.9 µM) | 12.5 (≈ 49.9 µM) | > 100 | 50 (≈ 200 µM) | 25 (≈ 99.9 µM) | 25 (≈ 99.9 µM) | 50 (≈ 200 µM) | 6.2 (≈ 24.8 µM) | > 100 | ≤ 3.1 | 50 (≈ 200 µM) | 6.2 (≈ 24.8 µM) | 50 (≈ 200 µM) | > 100 | 6.2 (≈ 24.8 µM) | 6.2 (≈ 24.8 µM) | ≤ 100 | ≤ 100 | MIC [1]: 6.2 µg/mL (≈ 24.8 µM); MIC (A. fumigatus NRRL 165): 50 µg/mL (≈ 200 µM)
C=C1C(=O)c2ccccc2OC1(c1ccccc1)c1ccccc1 [Ex. 20, 3-methylene-2-phenyl flavanone] | > 100 | > 100 | > 100 | 1 (≈ 3.2 µM) | > 100 | 0.78 to 1 (≈ 2.5 to 3.2 µM) | > 100 | > 100 | > 100 | 0.5 (≈ 1.6 µM) | > 100 | > 100 | > 100 | > 100 | > 100 | > 100 | > 100 | 0.25 to 0.5 (≈ 0.8 to 1.6 µM) | 0.78 to 3.1 (≈ 2.5 to 9.92 µM) | 1 (≈ 3.2 µM) | MIC (T. tonsurans ATCC 10217): > 100 µg/mL; MIC (A. fumigatus NRRL 165): > 100 µg/mL; MIC (S. aureus NRRL B2747 [14]): 0.25 to 1 µg/mL (≈ 0.8 to 3.2 µM); MIC [15]: 0.125 µg/mL (≈ 0.4 µM); MIC [16]: 0.5 µg/mL (≈ 1.6 µM)
CN(C)CC1C(=O)c2ccccc2OC1c1ccccc1 (stereo not shown) [MA 1347, 3-(dimethylaminomethyl)flavanone, reference compound] | 6.2 to 25 (≈ 22 to 88.9 µM) | 6.2 to 12.5 (≈ 22 to 44.4 µM) | 25 (≈ 88.9 µM) | 12.5 (≈ 44.4 µM) | > 100 | 50 (≈ 178 µM) | 25 to 50 (≈ 88.9 to 178 µM) | 12.5 to 25 (≈ 44.4 to 88.9 µM) | 50 to 100 (≈ 178 to 355 µM) | 6.2 to 12.5 (≈ 22 to 44.4 µM) | > 100 | 3.1 to 12.5 (≈ 11 to 44.4 µM) | 50 to 100 (≈ 178 to 355 µM) | 6.2 to 12.5 (≈ 22 to 44.4 µM) | 50 (≈ 178 µM) | > 100 | 6.2 to 12.5 (≈ 22 to 44.4 µM) | 6.2 to 12.5 (≈ 22 to 44.4 µM) | 12.5 (≈ 44.4 µM) | ≤ 100 | MIC (T. tonsurans ATCC 10217): 6.2 µg/mL (≈ 22 µM); Minimal Inhibitory Concentration (A. fumigatus NRRL 163; NRRL 163): 5.2 to 25 µg/mL; Minimal Inhibitory Concentration ([1]; 32° C.): 6.12 to 12.5 µg/mL; MIC [1]: 6.2 to 12.5 µg/mL (≈ 22 to 44.4 µM); Minimal Inhibitory Concentration [6]: 6.2 to 12.5 µg/mL; Minimal Inhibitory Concentration (S. aureus NRRL B2747 [11]; 32° C.): 6.2 to 12.5 µg/mL; MIC (S. aureus NRRL B2747 [14]): 25 µg/mL (≈ 88.9 µM); MIC [15]: 3.1 µg/mL (≈ 11 µM); MIC [16]: 6.2 µg/mL (≈ 22 µM)
